Results reported in US11530196B2, “Pyrimidine compound acting on EGFR and ERBB2” (CHINA RESOURCES PHARMACEUTICAL HOLDINGS COMPANY LIMITED, priority 2019, dated 2022).

Key:
[1] = target: Ba/F3 EGFR-D770_N771insSVD (Homo sapiens, UniProt P00533, DUP768-770, cells depend on it); test: Anti-proliferation against Ba/F3 exon 20 insertion mutant cells (SVD); assay type: cell-based, mouse; settings: CTG, 72 hours, read-out: Mutant cells IC50 (anti-proliferation)
Source text: RPMI1640 medium was purchased from Hyclone, FBS fetal bovine serum was purchased from GBICO, and trypsin-EDTA were both purchased from Giboco. DPBS was purchased from Corning, penicillin/streptomycin solution was purchased from Hyclone, and Cell-Titer Glo reagent was purchased from Promega (Cat. No. G7572). Ba/F3 EGFR-D770_N771insSVD, Ba/F3 EGFR-H773_V774insNPH, Ba/F3 EGFR-V769_D770insASV, BaF3 ERBB2 A775_G776 ins YVMA, the cell lines were constructed by Beijing Kang Yuan Bochuang Biotechnology Co., Ltd. Plate reading instrument: Envision (PerkinElmer).
Cells in logarithmic growth phase were harvested and cell counts were performed using a […]. Cell viability was detected by the Taipan Blue rejection assay. The cell concentration was adjusted; the cell suspension was added to a 96-well plate separately. Cells in 96-well plates were incubated overnight at 37° C., 5% CO2, and 95% humidity. To prepare the drug solution, 10 μL of drug solution was added to each well of the 96-well plate inoculated with cells, and three replicate wells were set up for each drug concentration. The cells in the 96-well plates added with drugs were placed at 37° C., 5% CO2, 95% humidity and continued to incubate for 72 hours, after which CTG analysis was performed and the cells were vibrated on an orbital shaker to lyse the cells. The cell plate was placed at room temperature to stabilize the cold light signal, and the cold light values were read. The data were analyzed using GraphPad Prism 7.0 software, and a nonlinear S-curve regression was used to fit the data to derive the dose-effect curve from which the IC50 values were calculated.
The IC50 of anti-proliferation activity against Ba/F3 Exon20 insertion mutant cells of the compounds of the present disclosure is shown in Table 5.
Ba/F3 exon 20 insertion mutant cells are cell lines with SVD, NPH, ASV, and YVMA insertion mutations artificially constructed using mouse B cells, and it can be seen from Table 5 that the compounds of the present disclosure have better cellular anti-proliferation activity against the […] exon 20 insertion mutations such as SVD, NPH, ASV, and YVMA, and also show better anti-proliferation activity against common exon 20 insertion mutations such as SVD mutation.

[2] = test system: non-small cell lung cancer with EGFR and HER2 exon 20 insertion mutation; settings: clinical reports, NSCLC with EGFR and HER2 exon 20 insertion mutation; cited from earlier work

Chain of Ba/F3 EGFR-D770_N771insSVD (P00533 with tags, fused parts or gaps DUP768-770): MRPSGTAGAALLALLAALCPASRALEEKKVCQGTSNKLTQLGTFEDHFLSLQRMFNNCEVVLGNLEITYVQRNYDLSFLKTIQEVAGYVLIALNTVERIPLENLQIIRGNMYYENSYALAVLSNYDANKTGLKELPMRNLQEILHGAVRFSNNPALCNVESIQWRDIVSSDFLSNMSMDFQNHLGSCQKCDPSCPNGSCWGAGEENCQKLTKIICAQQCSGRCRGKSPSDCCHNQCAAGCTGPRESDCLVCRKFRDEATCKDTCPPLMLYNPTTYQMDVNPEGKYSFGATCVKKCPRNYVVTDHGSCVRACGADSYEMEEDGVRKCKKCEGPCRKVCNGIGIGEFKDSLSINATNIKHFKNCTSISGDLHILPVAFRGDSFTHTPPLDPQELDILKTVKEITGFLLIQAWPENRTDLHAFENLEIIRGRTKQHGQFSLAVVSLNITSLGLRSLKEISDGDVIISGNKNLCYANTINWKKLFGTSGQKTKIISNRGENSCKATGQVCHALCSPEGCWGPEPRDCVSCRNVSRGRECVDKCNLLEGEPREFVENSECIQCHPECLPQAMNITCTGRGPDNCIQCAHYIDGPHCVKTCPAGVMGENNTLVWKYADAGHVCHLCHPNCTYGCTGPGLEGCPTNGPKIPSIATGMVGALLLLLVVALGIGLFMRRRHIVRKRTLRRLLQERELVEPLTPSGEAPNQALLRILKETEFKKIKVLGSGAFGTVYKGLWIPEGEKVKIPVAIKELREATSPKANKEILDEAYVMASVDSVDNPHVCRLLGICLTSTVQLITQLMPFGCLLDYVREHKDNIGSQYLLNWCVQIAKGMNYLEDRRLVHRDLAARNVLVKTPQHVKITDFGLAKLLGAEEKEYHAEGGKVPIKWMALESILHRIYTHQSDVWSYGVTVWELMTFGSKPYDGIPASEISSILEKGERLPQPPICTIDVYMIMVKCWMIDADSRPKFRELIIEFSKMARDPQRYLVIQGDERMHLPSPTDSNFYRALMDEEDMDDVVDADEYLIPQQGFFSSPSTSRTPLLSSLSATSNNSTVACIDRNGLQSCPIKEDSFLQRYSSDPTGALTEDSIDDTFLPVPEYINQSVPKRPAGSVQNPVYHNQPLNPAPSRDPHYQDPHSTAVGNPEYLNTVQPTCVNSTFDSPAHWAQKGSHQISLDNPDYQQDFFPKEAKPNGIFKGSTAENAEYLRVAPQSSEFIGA

GI50 [1] | SMILES | disease control rate [2] | objective response rate [2]
54 nM | C=CC(=O)Nc1cc(Nc2ncc(C(=O)OC(C)C)c(-c3cn(OC(C)C)c4ccccc34)n2)c(OC)cc1N(C)CCN(C)C [Compound 3] |  | 
58 nM | C=CC(=O)Nc1cc(Nc2ncc(C(=O)OC(C)C)c(-c3cn(OC)c4c(C5CC5)cccc34)n2)c(OC)cc1N(C)CCN(C)C [Compound 5] |  | 
 | C=CC(=O)Nc1cc(Nc2ncc(C(=O)OC(C)C)c(-c3cn(C)c4ccccc34)n2)c(OC)cc1N(C)CCN(C)C [TAK788] | 86% | 43%
33 nM | C=CC(=O)Nc1cc(Nc2ncc(C(=O)OC(C)C)c(-c3cn(OC)c4c(Cl)cccc34)n2)c(OC)cc1N(C)CCN(C)C [Compound 4] |  | 
27 nM | C=CC(=O)Nc1cc(Nc2ncc(C(=O)OC(C)C)c(-c3cn(OCC)c4ccccc34)n2)c(OC)cc1N(C)CCN(C)C [Compound 2] |  | 
